From ChEMBL document CHEMBL4613287, “Glycomimetic Based Approach toward Selective Carbonic Anhydrase Inhibitors” (ACS Med Chem Lett, 2020)

Experiments:
Carbonic anhydrase 1 = Carbonic anhydrase 1 (Homo sapiens, UniProt P00915); test: Inhibition of recombinant human carbonic anhydrase 1 preincubated with enzyme for 15 mins by phenol red dye based stopped flow CO2 hydration assay
Carbonic anhydrase 2 = Carbonic anhydrase 2 (Homo sapiens, UniProt P00918); test: Inhibition of recombinant human carbonic anhydrase 2 preincubated with enzyme for 15 mins by phenol red dye based stopped flow CO2 hydration assay
Carbonic anhydrase 7 = Carbonic anhydrase 7 (Homo sapiens, UniProt P43166); test: Inhibition of recombinant human carbonic anhydrase 7 preincubated with enzyme for 15 mins by phenol red dye based stopped flow CO2 hydration assay
Carbonic anhydrase 9 = Carbonic anhydrase 9 (Homo sapiens, UniProt Q16790); test: Inhibition of recombinant human carbonic anhydrase 9 preincubated with enzyme for 15 mins by phenol red dye based stopped flow CO2 hydration assay
Carbonic anhydrase 12 = Carbonic anhydrase 12 (Homo sapiens, UniProt O43570); test: Inhibition of recombinant human carbonic anhydrase 12 preincubated with enzyme for 15 mins by phenol red dye based stopped flow CO2 hydration assay
Sequence of Carbonic anhydrase 12 (O43570 whole entry): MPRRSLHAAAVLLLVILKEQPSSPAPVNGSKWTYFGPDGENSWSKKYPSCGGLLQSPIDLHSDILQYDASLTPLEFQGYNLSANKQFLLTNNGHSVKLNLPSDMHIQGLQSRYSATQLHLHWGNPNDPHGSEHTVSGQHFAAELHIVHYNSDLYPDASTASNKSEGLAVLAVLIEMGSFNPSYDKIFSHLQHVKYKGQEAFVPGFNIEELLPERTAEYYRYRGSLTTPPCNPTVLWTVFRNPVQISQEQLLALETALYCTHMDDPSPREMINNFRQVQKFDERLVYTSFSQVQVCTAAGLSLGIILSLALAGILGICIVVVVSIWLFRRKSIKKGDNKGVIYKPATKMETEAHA

Sequence of Carbonic anhydrase 7 (P43166 whole entry): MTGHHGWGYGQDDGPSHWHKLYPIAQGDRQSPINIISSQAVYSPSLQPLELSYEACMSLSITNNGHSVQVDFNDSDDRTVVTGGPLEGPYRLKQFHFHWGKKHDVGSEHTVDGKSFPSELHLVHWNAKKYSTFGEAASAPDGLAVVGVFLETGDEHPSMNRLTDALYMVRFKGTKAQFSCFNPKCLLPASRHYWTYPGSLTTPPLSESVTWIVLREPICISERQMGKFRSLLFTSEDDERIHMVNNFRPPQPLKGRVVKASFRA
Sequence of Carbonic anhydrase 1 (P00915 whole entry): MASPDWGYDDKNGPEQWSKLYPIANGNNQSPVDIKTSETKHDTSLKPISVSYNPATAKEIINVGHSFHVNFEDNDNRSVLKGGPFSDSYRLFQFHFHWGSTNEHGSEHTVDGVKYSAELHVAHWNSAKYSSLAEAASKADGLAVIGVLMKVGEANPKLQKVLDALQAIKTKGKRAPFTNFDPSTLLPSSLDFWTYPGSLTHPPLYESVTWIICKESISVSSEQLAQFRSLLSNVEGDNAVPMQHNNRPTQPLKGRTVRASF

| Ki (Carbonic anhydrase 1) | Ki (Carbonic anhydrase 2) | Ki (Carbonic anhydrase 7) | Ki (Carbonic anhydrase 9) | Ki (Carbonic anhydrase 12) | Structure (SMILES) |
| --- | --- | --- | --- | --- | --- |
| 2880 nM | 80.3 nM | 7.4 nM | 2980 nM | 541 nM | CC1(C)O[C@H]2[C@H](O)CN(CCCCCCn3cc(CNc4ccc(S(N)(=O)=O)cc4)nn3)C[C@H]2O1 |
| 956 nM | 801 nM | 31.2 nM | 35.9 nM | 770 nM | CC1(C)O[C@H]2[C@H](O)[C@H]([C@H]3[C@H](O)[C@H]4OC[C@@H](O4)[C@H]3O)N(CCCCCCn3cc(CNc4ccc(S(N)(=O)=O)cc4)nn3)C[C@H]2O1 |
